# Experimental data taken from patent US11298400B2, “Method of enhancing the therapeutic efficacy of fexapotide triflutate in treating LUTS” (Nymox Corporation, priority 2019, dated 2022).
# Marks after values point to notes of the source that are not given here. Ends that are not written are not given here.
# Columns and labels:
# [1] = tested on: Patients with BPH and who optionally also had LUTS; experiment: Clinical trial: inability to provide urine volume >125 mL (Qmax unable) after intraprostatic injection; assay type: in vivo, human; conditions: for improvement in percentage of patients with Qmax failures: FT twice over at least one year; for % of Patients With Inability to Provide Urine Volume >125 mL: intraprostatic
# Experimental: (§1) Clinical trials were conducted on numerous individuals having BPH, some of whom also had LUTS. All protocols were done in accordance with applicable regulations, and carried out by physicians.
# Patients with BPH and who optionally also had LUTS were given an intraprostatic injection of either a) FT 2.5 mg in phosphate buffered saline pH 7.2 (“PBS”) or b) PBS alone, under double-blind conditions by a urologist in an office setting under ultrasound guidance. Patients were followed for >=3 months to several years with regular physical examinations, laboratory tests, and evaluations of symptoms. […] Subjects who were unable to void >=125 mL despite drinking as much water as they wanted were classified as “Qmax unable”. The numbers of subjects who became Qmax unable was compared in different groups.
# [2] = tested on: Patients with BPH and who optionally also had LUTS; experiment: Clinical trial: urinary peak flow rate (Qmax) mean change from baseline; assay type: in vivo, human; conditions: for improvement in peak flow rate mean change from baseline: FT twice over at least one year; for Mean Change of Qmax from baseline: intraprostatic
# Experimental: as §1
# Patients were followed for >=3 months to several years with regular physical examinations, laboratory tests, and evaluations of symptoms. Urinary peak flow (Qmax) was measured by flow-meter readings using standard techniques, at 3 months and at 12 months or longer in subjects who were able to urinate adequate volume of urine (>125 mL) to provide a valid test. All peak flow measurements were assessed by a blinded central reader. The mean peak flow rate change from baseline was compared in different groups.
# [3] = tested on: Patients with BPH and who optionally also had LUTS; experiment: Clinical trial: nocturia score (IPSS question 7) mean change from baseline; assay type: in vivo, human; conditions: for improvement in nocturia score mean change from baseline: FT twice over at least one year; for Nocturia Score Mean Change From Baseline: intraprostatic, IPSS question 7, (SD)
# Text: Improvements in obstructive and irritative symptoms can be measured in accordance with techniques known in the art. For example, uroflowmeters are known to differentiate urine weight change to provide a continuous plot of the flow rate vs. time that is smoothed by internal electronic filtering to permit precise (±5%) measurement of Qmax. Schafer W, et al. “Good urodynamic practices: Uroflowmetry, filling cystometry and pressure-flow studies,” Neurourol Urodynamics, Vol. 21, pp. 261-74 (2002). Nocturia can be measured in a variety of manners, most of which involve patients completing a questionnaire before and after treatment to establish a baseline, and then determine the difference (improvement, lack of improvement, worsening, etc.) from baseline after treatment. Exemplary questionnaires include evaluating the scores from the nocturia question included in the International Prostate Symptom Score (IPSS), assessing the number of nocturnal voids (Boyarsky symptom score), the Madsen-Iversen Symptom Score, and the ICSmale questionnaire. See, e.g., Chartier-Kastler, et al., “The Measurement of Nocturia and its Impact on Quality of Sleep and Quality of Life in LUTS/BPH,” Eur. Urol. Supp., Vol. 5, pp. 3-11 (2006). A preferred method of measuring nocturia is by determining the mean change from baseline of the nocturia question in the IPSS (question 7). Question 7 solicits from the patient how many times over the past month they had to get up to urinate from the time they went to bed until the time they got up—the score ranging from none (score 0) to 5 or more times (score 5).
# as §1
# Patients with BPH and who optionally also had LUTS were given an intraprostatic injection of either a) FT2.5 in 10 mL phosphate buffered saline pH 7.2 (“PBS”) or b) FT 5.0 mg in PBS or c) FT 2.5 mg in PBS 2-dosages given >1 year apart, or d) PBS 10 mL alone, under double-blind conditions by a urologist in an office setting under ultrasound guidance. Patients were followed for >=3 months to several years with regular physical examinations, laboratory tests, and evaluations of symptoms. The mean difference from baseline nocturia scores to follow-up scores (nocturia scores are the values provided to question #7 in the IPSS) were calculated in FT treated subjects given single dose FT 2.5 mg, single dose FT 0.5 mg, 2-dose 2.5 mg>1 year apart, and Placebo treated controls.
# [4] = tested on: prostate glandular epithelial cells; experiment: Tissue culture genetic array, in vitro; assay type: cell-based; conditions: tissue culture genetic array data
# Text: FT selectively causes loss of cell membrane integrity, mitochondrial metabolic arrest, depletion of RNA, DNA lysis and aggregation, and cell fragmentation and cell loss. The apoptotic process leads to typical ultrastructural progressive changes of membranous disruption and swelling, progressively deepening nuclear invaginations with eventual membranous bleb formations and cell death and fragmentation into apoptotic bodies. Histologically, typical apoptotic changes with positive immunohistochemical staining of markers for apoptosis are found throughout the injected areas for up to several weeks after treatment.
# [5] = compared to a single administration of four times the amount
# [6] = compared to a single administration of twice the amount
# [7] = Two Doses of 2.5 mg FT > 1 year apart
substance,measurement,setting,value
Fexapotide Triflutate (IDQQVLSRIKLEIKRCL; also: trifluoroacetate salt) [FT],inhibition of the progression of urinary flow worsening,"[1]; 2 single dosages of 2.5 mg separated by >1 year, vs one-time 5.0 mg or 10.0 mg dose",significantly better inhibition
same,improvement in percentage of patients with Qmax failures,[1]; [5],about 83.3%
same,improvement in percentage of patients with Qmax failures,[1]; [6],about 81.4%
same,improvement in percentage of patients with Qmax failures,[1]; compared to the control,about 77%
same,% of Patients With Inability to Provide Urine Volume >125 mL,"[1]; Single Dose of 5.0 mg FT, 90 days after last treatment",21%* (90 days)
same,% of Patients With Inability to Provide Urine Volume >125 mL,"[1]; Single Dose of 10.0 mg FT, 90 days after last treatment",23.3%** (90 days)
same,% of Patients With Inability to Provide Urine Volume >125 mL,"[1]; Two Doses of 2.5 mg FT > 1 year apart, 180 days after last treatment",3.9% (180 days)
same,inhibition of the progression of urinary flow worsening,"[1]; double (two 2.5 mg doses) or 4X (four 2.5 mg doses) single dose, vs single dose 2.5 mg",did not have significantly better response than single dose 2.5 mg
same,inhibition of the progression of urinary flow worsening,"[1]; single dose of FT 2.5 mg, after 3 months, vs control groups",not significantly better than control groups
same,improvement in peak flow rate mean change from baseline,[2]; [5],about 47%
same,improvement in peak flow rate mean change from baseline,[2]; [6],about 102%
same,improvement in peak flow rate mean change from baseline,[2]; compared to the control,about 111%
same,Mean Change of Qmax from baseline,[2]; Single Dose of 5.0 mg FT,1.28 mL/s
same,Mean Change of Qmax from baseline,[2]; Single Dose of 10.0 mg FT,1.76 mL/s
same,Mean Change of Qmax from baseline,[2]; [7],2.59 mL/s
same,improvement in nocturia score mean change from baseline,[3]; compared to a single administration of the same individual amount,about 37%
same,improvement in nocturia score mean change from baseline,[3]; compared to a single administration of twice the individual amount,about 19.4%
same,improvement in nocturia score mean change from baseline,[3]; compared to the control,about 48%
same,Nocturia Score Mean Change From Baseline,[3]; Single Dose of 5.0 mg FT,−0.54 (SD 1.1)*
same,Nocturia Score Mean Change From Baseline,[3]; Single Dose of 10.0 mg FT,−0.62 (SD 1.64)*
same,Nocturia Score Mean Change From Baseline,[3]; [7],"−0.74 (SD 1.26)**, ***"
same,"effect on caspase, tumor necrosis factor and BCL pathways",[4],stimulates caspase pathways
